Target: T1, SIRT1 (Homo sapiens, UniProt Q96EB6)
T1 sequence (Q96EB6 2-747): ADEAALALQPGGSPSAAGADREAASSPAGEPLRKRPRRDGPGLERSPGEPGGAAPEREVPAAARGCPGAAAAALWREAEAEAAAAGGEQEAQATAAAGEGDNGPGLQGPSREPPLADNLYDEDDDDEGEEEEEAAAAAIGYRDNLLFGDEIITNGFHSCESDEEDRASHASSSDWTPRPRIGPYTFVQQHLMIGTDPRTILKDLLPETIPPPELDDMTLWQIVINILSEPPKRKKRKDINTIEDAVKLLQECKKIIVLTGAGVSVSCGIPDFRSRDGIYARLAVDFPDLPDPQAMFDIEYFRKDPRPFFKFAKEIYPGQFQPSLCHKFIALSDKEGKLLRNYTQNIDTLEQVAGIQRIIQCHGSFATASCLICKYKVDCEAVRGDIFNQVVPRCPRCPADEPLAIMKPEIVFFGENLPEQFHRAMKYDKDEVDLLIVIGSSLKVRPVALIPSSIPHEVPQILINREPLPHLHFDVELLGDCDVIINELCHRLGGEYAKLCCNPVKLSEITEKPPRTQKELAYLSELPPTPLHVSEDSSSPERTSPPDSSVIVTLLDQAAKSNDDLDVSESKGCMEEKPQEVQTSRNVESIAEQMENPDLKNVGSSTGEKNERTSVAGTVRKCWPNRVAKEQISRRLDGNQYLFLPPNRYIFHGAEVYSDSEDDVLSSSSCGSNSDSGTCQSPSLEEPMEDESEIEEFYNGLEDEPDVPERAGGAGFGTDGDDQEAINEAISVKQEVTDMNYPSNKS
Assay: SensoLyte […] FRET fluorimetric SIRT1 enzyme activity assay kit
Format: biochemical

Row | Structure (SMILES) | IC50 [µM]
1 | CC(C)(C)c1cc(C=C2C(=O)NC(=S)NC2=O)cc(C(C)(C)C)c1O [MHY2256, 5-(3,5-di-tert-butyl-4-hydroxybenzylidene)-2-thioxodihydropyrimidine-4,6(1H,5H)-dione] | 1.89
2 | CC(C(=O)Nc1cccc(/N=C/c2c(O)ccc3ccccc23)c1)c1ccccc1 (centres unmarked) [salermide] | 4.8
